PubChem BioAssay AID2060621 (Molecular Pharmacology Branch, DTP, NCI, 2025)
Values joined by “and” are separate entries in the source; they are usually repeats but may differ in a detail not shown here. Equal values may be shown once.

Tested on: 324938-238-R-J1-PDC complex spheroids viability
Test: Anticancer human tumor 324938-238-R-J1-PDC patient-derived bladder carcinoma cell line growth inhibition [CLK]
Conditions: for viability, T/C: stronger effect = lower value
Summary of the method: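 Multi-cell-type spheroids combined patient-derived tumor cells with HUVEC endothelial cells and human mesenchymal stem cells. Paired agents were dosed in half-log steps down from about clinical Cmax, or from 10 microM where Cmax was unknown.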

[1] = curve of first compound, second compound 0.0316 µM
[2] = curve of first compound, second compound 0.1 µM
[3] = curve of first compound, second compound 0.316 µM
[4] = curve of first compound, second compound 1 µM
[5] = curve of first compound, second compound 3.16 µM
[6] = curve of first compound, second compound 10 µM
[7] = second compound 0.0316 µM, first compound 0.0316 µM
[8] = second compound 0.0316 µM, first compound 0.1 µM
[9] = second compound 0.0316 µM, first compound 0.316 µM
[10] = second compound 0.0316 µM, first compound 1 µM
[11] = second compound 0.0316 µM, first compound 3.16 µM
[12] = second compound 0.0316 µM, first compound 10 µM
[13] = second compound 0.1 µM, first compound 0.0316 µM
[14] = second compound 0.1 µM, first compound 0.1 µM
[15] = second compound 0.1 µM, first compound 0.316 µM
[16] = second compound 0.1 µM, first compound 1 µM
[17] = second compound 0.1 µM, first compound 3.16 µM
[18] = second compound 0.1 µM, first compound 10 µM
[19] = second compound 0.316 µM, first compound 0.0316 µM
[20] = second compound 0.316 µM, first compound 0.1 µM
[21] = second compound 0.316 µM, first compound 0.316 µM
[22] = second compound 0.316 µM, first compound 1 µM
[23] = second compound 0.316 µM, first compound 3.16 µM
[24] = second compound 0.316 µM, first compound 10 µM
[25] = second compound 1 µM, first compound 0.0316 µM
[26] = second compound 1 µM, first compound 0.1 µM
[27] = second compound 1 µM, first compound 0.316 µM
[28] = second compound 1 µM, first compound 1 µM
[29] = second compound 1 µM, first compound 3.16 µM
[30] = second compound 1 µM, first compound 10 µM
[31] = second compound 3.16 µM, first compound 0.0316 µM
[32] = second compound 3.16 µM, first compound 0.1 µM
[33] = second compound 3.16 µM, first compound 0.316 µM
[34] = second compound 3.16 µM, first compound 1 µM
[35] = second compound 3.16 µM, first compound 3.16 µM
[36] = second compound 3.16 µM, first compound 10 µM
[37] = second compound 10 µM, first compound 0.0316 µM
[38] = second compound 10 µM, first compound 0.1 µM
[39] = second compound 10 µM, first compound 0.316 µM
[40] = second compound 10 µM, first compound 1 µM
[41] = second compound 10 µM, first compound 3.16 µM
[42] = second compound 10 µM, first compound 10 µM
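Note: viability read after seven days of drug exposure.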
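Throughout, for viability, T/C: 100% = DMSO vehicle control wells.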

`COc1cccc2c1C(=O)c1c(O)c3c(c(O)c1C2=O)CC(O)(C(=O)CO)CC3OC1CC(N)C(O)C(C)O1` (stereo not drawn) + CNC(=O)c1ccc(Nc2nc(OC3CCCC3)c3c(-c4ccc5nc(C)oc5c4)c[nH]c3n2)c(OC)c1 was tested, and the IC50 [1] was < 31.6 nM, the IC50 [2] was < 31.6 nM and the IC50 [3] was < 31.6 nM. For the same molecule, the IC50 [4] was < 31.6 nM, the IC50 [5] was < 31.6 nM and the IC50 [6] was < 31.6 nM. For the same molecule, the viability, T/C [7] was 19.3%, the viability, T/C [8] was 16.8% and the viability, T/C [9] was 9.74%. For the same molecule, the viability, T/C [10] was 0.7%, the viability, T/C [11] was 0.12% and the viability, T/C [12] was 0.14%. For the same molecule, the viability, T/C [13] was 18.5%, the viability, T/C [14] was 20.2% and the viability, T/C [15] was 9.65%. It also gave a viability, T/C [16] of 0.48%, a viability, T/C [17] of 0.11% and a viability, T/C [18] of 0.15%. For the same molecule, the viability, T/C [19] was 19.1%, the viability, T/C [20] was 16.3% and the viability, T/C [21] was 9.12%. It also gave a viability, T/C [22] of 0.49%, a viability, T/C [23] of 0.16% and a viability, T/C [24] of 0.13%. For the same molecule, the viability, T/C [25] was 17.2%, the viability, T/C [26] was 11.7% and the viability, T/C [27] was 7.13%. The viability, T/C [28] was 0.58%, the viability, T/C [29] was 0.14% and the viability, T/C [30] was 0.15%. The viability, T/C [31] was 20.2%, the viability, T/C [32] was 12.2% and the viability, T/C [33] was 6.62%. The viability, T/C [34] was 0.36%, the viability, T/C [35] was 0.14% and the viability, T/C [36] was 0.16%. The viability, T/C [37] was 18.3%, the viability, T/C [38] was 13.4% and the viability, T/C [39] was 5.95%. For the same molecule, the viability, T/C [40] was 0.31%, the viability, T/C [41] was 0.19% and the viability, T/C [42] was 0.23%.
In the case of `CNC(=O)c1ccc(Nc2nc(OC3CCCC3)c3c(-c4ccc5nc(C)oc5c4)c[nH]c3n2)c(OC)c1`, the viability, T/C (compound 0.0316 µM) is reported as 86% [middle of 12 runs], the viability, T/C (compound 0.1 µM) is reported as 28.1% [middle of 12 runs] and the viability, T/C (compound 0.316 µM) is reported as 18.9% [middle of 12 runs]. For the same molecule, the viability, T/C (compound 1 µM) was 15.9% [middle of 12 runs], the viability, T/C (compound 3.16 µM) was 16.8% [middle of 12 runs] and the viability, T/C (compound 10 µM) was 17.5% [middle of 12 runs]. For the same molecule, the IC50 (compound alone, run of 08/15/2023) was 62.5 nM [middle of 11 runs].
In the case of `CCCS(=O)(=O)Nc1ccc(F)c(C(=O)c2c[nH]c3ncc(-c4ccc(Cl)cc4)cc23)c1F`, the viability, T/C (compound 0.0316 µM) is reported as 80.8% and 83%, the viability, T/C (compound 0.1 µM) is reported as 96.9% and 88.4% and the viability, T/C (compound 0.316 µM) is reported as 102% and 90.1%. The viability, T/C (compound 1 µM) was 115% and 101%, the viability, T/C (compound 3.16 µM) was 111% and 94.9% and the viability, T/C (compound 10 µM) was 55% and 44.1%. The IC50 (curve of compound) was > 10000 nM and 8670 nM.
With `COC1C=CCC(C)C(C)S(=O)(=O)NC(=O)c2ccc3c(c2)N(CC2CCC21)CC1(CCCc2cc(Cl)ccc21)CO3` (stereo not drawn) + CN1CCN(c2cc(C(=O)Nc3cc4cc(-c5cnn(C)c5)ccc4cn3)ccn2)CC1 the IC50 [1] was 440 nM, the IC50 [2] was 292 nM and the IC50 [3] was < 31.6 nM. The IC50 [4] was < 31.6 nM, the IC50 [5] was < 31.6 nM and the IC50 [6] was < 31.6 nM. It also gave a viability, T/C [7] of 86.6%, a viability, T/C [8] of 87.2% and a viability, T/C [9] of 57.6%. For the same molecule, the viability, T/C [10] was 27.6%, the viability, T/C [11] was 17.9% and the viability, T/C [12] was 11.9%. It also gave a viability, T/C [13] of 57.9%, a viability, T/C [14] of 52.9% and a viability, T/C [15] of 50.4%. It also gave a viability, T/C [16] of 25.9%, a viability, T/C [17] of 18.4% and a viability, T/C [18] of 13.9%. The viability, T/C [19] was 26.2%, the viability, T/C [20] was 26% and the viability, T/C [21] was 23.1%. The viability, T/C [22] was 13.1%, the viability, T/C [23] was 10.5% and the viability, T/C [24] was 8.58%. It also gave a viability, T/C [25] of 1.66%, a viability, T/C [26] of 1.72% and a viability, T/C [27] of 1.35%. It also gave a viability, T/C [28] of 0.96%, a viability, T/C [29] of 0.86% and a viability, T/C [30] of 0.63%. It also gave a viability, T/C [31] of 0.44%, a viability, T/C [32] of 0.47% and a viability, T/C [33] of 0.28%. For the same molecule, the viability, T/C [34] was 0.21%, the viability, T/C [35] was 0.22% and the viability, T/C [36] was 0.36%. It also gave a viability, T/C [37] of 0.19%, a viability, T/C [38] of 0.17% and a viability, T/C [39] of 0.21%. For the same molecule, the viability, T/C [40] was 0.19%, the viability, T/C [41] was 0.25% and the viability, T/C [42] was 0.25%.
